Where “and” joins values, the source holds several entries; their conditions need not be identical. Identical values can stand only once. Like-named read-outs stand apart in the source and are kept apart here.
Key:
CYP3A4 [1] = conditions: in vitro metabolic studies; humans; cited from earlier work
[2] = bile duct cannulated rats; no reference given; cited from earlier work
[3] = cited from earlier work; for Tmax: oral dosing
[4] = oral dosing; monkeys; cited from earlier work
CYP3A4 [5] = test system: CYP3A4; design: method as in PMID 19282395; conditions: cited from earlier work
in vivo = conditions: female, C57BL/6, mouse, plasma, po, 2 mg/kg
Description: (§1) Blood was collected via saphenous/retro-orbital vein at time points: 0.25, 0.75, 0.5, 1, 1.5, 2, 4, 8, 16 hours after treatment. Three sets of mice were used for this experiment, where set 1 was sampled at 2,4,8 hr; set 2 at 0.25, 0.75, 1.5 hr; set 3 at 0.5, 1 and 16 hr. Samples were centrifuged at 10,000 rpm for 2 minutes, plasma was removed and stored at -80°C until further analysis.
(§2) Briefly, parameters and the Fisher Information Matrix (FIM) were estimated using the stochastic approximation expectation maximization (SAEM) algorithm, and the final log-likelihood estimated with importance sampling, all using the default Monolix initial settings, except that 1000 iterations were permitted for estimation of FIM using stochastic approximation. A variety of models were fit to the respective compound’s Ct data, parameterized using apparent clearances, volumes of distribution, and absorption rate constant as needed. […] A log-normal inter-individual and inter-occasion parameter distribution was assumed on selected supported parameters, with both on- and off-diagonal elements of parameter covariance matrices tested. Additive and/or proportional error models were tested and implemented as supported. Beal’s M3 method was used to fit any data that were below the LLOQ or above the upper limit of the assay range [20]. […] Additionally, Wald test P values were outputted for each covariate effect by the Monolix software.
(§3) Additionally, Wald test P values were outputted for each covariate effect by the Monolix software.

GCR = conditions: read-out: GCR EC50; printed in Fig 9; ref J Biol Chem. 2002 Jan 11; PMID: 11682470; cited from earlier work
PXR = conditions: cited from earlier work
[6] = DEX single oral gavage plasma pharmacokinetics (NLME modeling); conditions: for DV (Dex oral gavage PK raw data): individual mice;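 for all read-outs here: plasma concentration-time data analysed by nonlinear mixed-effects modeling in Monolix with SAEM estimation, models built on apparent clearance, distribution volume and absorption rate constant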
Description: as §1, §2, §3

[7] = test system: BCR-ABL Arf-/- Luc+ ALL cells; assay: Survival study of mice with BCR-ABL Arf-/- leukemia on discontinuous DEX regimen; format: in vivo, mouse; conditions: for median survival time: BCR-ABL Arf-/- ALL, discontinuous DEX
Description: Murine BCR-ABL Arf^-/- Luc^+ ALL cells were created by Dr. Charles Sherr (St. Jude Children’s Research Hospital) and provided immediately prior to mouse injection by the laboratory of Dr. Mary Relling (St. Jude Children’s Research Hospital). The cells had been tested for mycoplasma and were authenticated by flow cytometry for cell surface markers, tested for their leukemia-inducing capabilities with serial dilutions of cell numbers (from 2 million down to 2,000 cells), and ensured that the cells with the luciferase constructs produced light when combined with luciferin. Only cells from early passage (P3-P15) were used for these experiments. The St Jude Children’s Research Hospital Institutional Biosafety Committee and IACUC approved the use of these cells for injection into mice. C57BL/6 VD3 sufficient (n = 24) and deficient (n = 22) male mice (8–18 wk of age) were anaesthetized using isoflurane and injected iv with 2,000 BCR-ABL Arf^-/- Luc^+ ALL cells on day zero. […] Xenogen IVIS-200 (Caliper Life Sciences, Hopkinton, MA) was used to acquire bioluminescent images 5 minutes post-intra peritoneal injection of 200 μL of 100 mg/kg D-Luciferin (Caliper Life Sciences, Hopkinton, MA). Mice were anaesthetized with isoflurane during this procedure. The bioluminescent signal (photons/s) from a fixed region of interest (ROI) is used to monitor the disease progression twice every week. Images acquired here were analyzed using Living Image 3.1 software (Caliper Life Sciences), where whole body luciferase flux measurements (photons/s) were quantified as disease burden. Animal Welfare: All efforts were taken to minimize suffering and distress in the survival studies. […] All other mice in the survival study were euthanized within hours of reaching the humane end point/end of study = moribund for any reason which was determined based on hind limb paralysis (very typically observed in mice with BCR-ABL ALL), scruffy coat, lethargy or an inability to obtain food or water (SJ IACUC protocol #100468–613). A portion of spleen and hind limb were fixed, paraffin embedded, cut, and slides stained with hematoxylin and eosin and evaluated by a St Jude Pathologist (Dr. Laura Janke) to confirm leukemia was the cause of death.

In the case of `Cc1nc(Nc2ncc(C(=O)Nc3c(C)cccc3Cl)s2)cc(N2CCN(CCO)CC2)n1` [dasatinib], the “share of dasatinib metabolized by CYP3A4” value (CYP3A4 [1]) is given as 98%, the oral bioavailability [2] is given as 27% and the “percentage of unchanged drug in the gastrointestinal tract” value [2] is given as 33%. The bioavailability ([3]; mice) was 17%, the bioavailability ([3]; one study, species not given) was 45–51% and the Tmax ([3]; Mdr1a wild-type and KO mice) was 15 min. For the same compound, the Tmax ([3]; nude female nude mice) was 120 min, the Tmax [4] was 36 min and the “K(inact), CYP3A4 mechanism-based inactivation” value (CYP3A4 [5]) was 0.034 min (-1). The KI (inactivation) (CYP3A4 [5]; read-out: K(I), CYP3A4 mechanism-based inactivation) was 6.3 µM.

For `C[C@@H]1C[C@H]2[C@@H]3CCC4=CC(=O)C=C[C@]4(C)[C@@]3(F)[C@@H](O)C[C@]2(C)[C@@]1(O)C(=O)CO` [DEX, dexamethasone], the concentration at 2 h (in vivo) is given as 676 ng/mL, the EC50 (GCR) is given as 0.011 µM and the EC50 (PXR; printed in Fig 9, ref Kliewer SA, et al. Cell. 1998) is given as 30 µM. The Kd (PXR; relatively weak PXR agonist, no reference given, read-out: Kd as PXR agonist) was ~30 µM, the “estimated Cgut (gut concentration)” value ([6]; single oral gavage) was 200 µM and the “higher CL/F in males vs females” value ([6]; single oral gavage 2 mg/kg DEX phosphate, regardless of VD3 status) was ~ 25%. For the same compound, the “lower AUC values in males vs females” value ([6]; single oral gavage 2 mg/kg dexamethasone phosphate, 14 weeks) was “approximately 25%”, the “apparent oral clearance (CL/F), male vs female” value ([6]; single oral gavage, regardless of VD3 status) was 1.26 fold and the “DV (Dex oral gavage PK raw data)” value ([6]; time 0.25, SEX:F, VD3_DEF:0) was 907.64 and 982.88. For the same compound, the “DV (Dex oral gavage PK raw data)” value ([6]; time 0.25, SEX:M, VD3_DEF:0) was 359.52 and 381.14 and 918.28 and 295.91, the “DV (Dex oral gavage PK raw data)” value ([6]; time 0.5, SEX:F, VD3_DEF:0) was 300.45 and 875.91 and 827.78 and 1011.08 and 796.28 and the “DV (Dex oral gavage PK raw data)” value ([6]; time 0.5, SEX:M, VD3_DEF:0) was 854.61 and 443.3 and 391.17 and 812.36 and 581.49. For the same compound, the “DV (Dex oral gavage PK raw data)” value ([6]; time 0.75, SEX:F, VD3_DEF:0) was 593 and 696.57 and 716.27, the “DV (Dex oral gavage PK raw data)” value ([6]; time 0.75, SEX:M, VD3_DEF:0) was 319 and 407.15 and 712.45 and 358.52 and the “DV (Dex oral gavage PK raw data)” value ([6]; time 1, SEX:F, VD3_DEF:0) was 323.98 and 614.7 and 559.39 and 858.7 and 572.77. For the same compound, the “DV (Dex oral gavage PK raw data)” value ([6]; time 1, SEX:M, VD3_DEF:0) was 871.76 and 446.29 and 284.95 and 564.36 and 379.97, the “DV (Dex oral gavage PK raw data)” value ([6]; time 1.5, SEX:F, VD3_DEF:0) was 400.31 and 458.1 and 520.89 and the “DV (Dex oral gavage PK raw data)” value ([6]; time 1.5, SEX:M, VD3_DEF:0) was 262.55 and 317.69 and 754.41 and 324.39. The “DV (Dex oral gavage PK raw data)” value ([6]; time 2, SEX:F, VD3_DEF:0) was 620.12 and 492.72 and 552.22 and 715.36, the “DV (Dex oral gavage PK raw data)” value ([6]; time 2, SEX:M, VD3_DEF:0) was 450.54 and 344.89 and 388.67 and 378.66 and 784.19 and the “DV (Dex oral gavage PK raw data)” value ([6]; time 2, SEX:M, VD3_DEF:1) was 453.95 and 476.24. The “DV (Dex oral gavage PK raw data)” value ([6]; time 4, SEX:F, VD3_DEF:0) was 375.42 and 312.44 and 291.92 and 312.42 and 297.86, the “DV (Dex oral gavage PK raw data)” value ([6]; time 4, SEX:M, VD3_DEF:0) was 215.15 and 191.38 and 191.07 and 239.97 and 623.74 and the “DV (Dex oral gavage PK raw data)” value ([6]; time 4, SEX:M, VD3_DEF:1) was 214.6 and 240.73 and 185.34. The “DV (Dex oral gavage PK raw data)” value ([6]; time 8, SEX:F, VD3_DEF:0) was 121.36 and 89.26 and 221.1 and 152.45 and 67.95, the “DV (Dex oral gavage PK raw data)” value ([6]; time 8, SEX:M, VD3_DEF:0) was 74.87 and 61.36 and 52.11 and 112.04 and 269.34 and the “DV (Dex oral gavage PK raw data)” value ([6]; time 8, SEX:M, VD3_DEF:1) was 66.26 and 72.8. The “DV (Dex oral gavage PK raw data)” value ([6]; time 16, SEX:F, VD3_DEF:0) was 29.97 and 65.92 and 14.35 and 7.95 and 53.43, the “DV (Dex oral gavage PK raw data)” value ([6]; time 16, SEX:M, VD3_DEF:0) was 18.43 and 25.62 and 92.79 and 13.68 and 19.85 and the median survival time ([7]; DEX-treated VD3 deficient male mice) was 59 days. It also gave a median survival time ([7]; DEX-treated VD3 sufficient male mice) of 36 days, a Survival proportions ([7]; VD3 Deficient, days survived 0) of 100 and a Survival proportions ([7]; VD3 Deficient, days survived 22) of 90.5. It also gave a Survival proportions ([7]; VD3 Deficient, days survived 24) of 85.7, a Survival proportions ([7]; VD3 Deficient, days survived 32) of 81 and a Survival proportions ([7]; VD3 Deficient, days survived 36) of 76.2. The Survival proportions ([7]; VD3 Deficient, days survived 38) was 71.4, the Survival proportions ([7]; VD3 Deficient, days survived 48) was 61.9 and the Survival proportions ([7]; VD3 Deficient, days survived 55) was 57.1. It also gave a Survival proportions ([7]; VD3 Deficient, days survived 59) of 47.6, a Survival proportions ([7]; VD3 Sufficient, days survived 0) of 100 and a Survival proportions ([7]; VD3 Sufficient, days survived 15) of 90.9. The Survival proportions ([7]; VD3 Sufficient, days survived 22) was 86.4, the Survival proportions ([7]; VD3 Sufficient, days survived 23) was 81.8 and the Survival proportions ([7]; VD3 Sufficient, days survived 25) was 72.7. For the same compound, the Survival proportions ([7]; VD3 Sufficient, days survived 32) was 63.6, the Survival proportions ([7]; VD3 Sufficient, days survived 34) was 59.1 and the Survival proportions ([7]; VD3 Sufficient, days survived 35) was 54.5. For the same compound, the Survival proportions ([7]; VD3 Sufficient, days survived 37) was 45.5, the Survival proportions ([7]; VD3 Sufficient, days survived 38) was 40.9 and the Survival proportions ([7]; VD3 Sufficient, days survived 48) was 27.3. It also gave a Survival proportions ([7]; VD3 Sufficient, days survived 55) of 22.7 and a Survival proportions ([7]; VD3 Sufficient, days survived 59) of 18.2.
